System: MV-4-11 cells
Assay: Gene expression microarray analysis (Affymetrix PrimeView) and GSEA
Assay type: cell-based, human
Design: RFU PODN (11730768_x_at) / Fold change /veh PODN (11730768_x_at) / RFU LINC00158 (11744669_a_at) / Fold change /veh LINC00158 (11744669_a_at) / RFU DUSP10 (11751237_a_at) / Fold change /veh DUSP10 (11751237_a_at) / RFU ID3 (11757404_x_at) / Fold change /veh ID3 (11757404_x_at) / RFU PLEKHG5 (11737974_s_at) / Fold change /veh PLEKHG5 (11737974_s_at) / RFU LRRC4B (11730491_at) / Fold change /veh LRRC4B (11730491_at) / RFU GIMAP4 (11747438_a_at) / Fold change /veh GIMAP4 (11747438_a_at) / RFU KRT8 (11758183_x_at) / Fold change /veh KRT8 (11758183_x_at) / RFU CNN1 (11734310_a_at) / Fold change /veh CNN1 (11734310_a_at) / RFU VPS37D (11726825_at) / Fold change /veh VPS37D (11726825_at) / RFU C10orf10 (11716522_x_at) / Fold change /veh C10orf10 (11716522_x_at) / RFU KIR2DL2 /// KIR2DL4 /// KIR2DL5A /// KIR2DL5B /// KIR2DS1 /// KIR2DS2 /// KIR2DS3 /// KIR2DS4 /// KIR3DL3 /// KIR3DL3 /// KIR3DS1 (11738374_at) / Fold change /veh KIR2DL2 /// KIR2DL4 /// KIR2DL5A /// KIR2DL5B /// KIR2DS1 /// KIR2DS2 /// KIR2DS3 /// KIR2DS4 /// KIR3DL3 /// KIR3DL3 /// KIR3DS1 (11738374_at) / RFU C1QL1 (11718748_at) / Fold change /veh C1QL1 (11718748_at) / RFU TMPRSS4 (11747572_a_at) / Fold change /veh TMPRSS4 (11747572_a_at) / RFU HAMP (11756126_x_at) / Fold change /veh HAMP (11756126_x_at) / RFU RNFT2 (11725882_a_at) / Fold change /veh RNFT2 (11725882_a_at) / RFU NR4A2 (11747474_a_at) / Fold change /veh NR4A2 (11747474_a_at) / RFU ABCC12 (11746883_a_at) / Fold change /veh ABCC12 (11746883_a_at) / RFU TMEM136 (11760407_x_at) / Fold change /veh TMEM136 (11760407_x_at) / RFU CLDN22 /// WWC2 (11732394_at) / Fold change /veh CLDN22 /// WWC2 (11732394_at) / RFU HLA-DPB1 (11760878_x_at) / Fold change /veh HLA-DPB1 (11760878_x_at) / RFU SPINT1 (11716480_a_at) / Fold change /veh SPINT1 (11716480_a_at) / RFU GAP43 (11754022_s_at) / Fold change /veh GAP43 (11754022_s_at) / RFU A4GNT (11735810_at) / Fold change /veh A4GNT (11735810_at) / RFU PRB3 (11715151_x_at) / Fold change /veh PRB3 (11715151_x_at) / RFU TUBB4B (11761932_at) / Fold change /veh TUBB4B (11761932_at) / RFU CAPN14 (11732068_a_at) / Fold change /veh CAPN14 (11732068_a_at) / RFU TMCC2 (11721928_a_at) / Fold change /veh TMCC2 (11721928_a_at) / RFU IRGQ (11745062_a_at) / Fold change /veh IRGQ (11745062_a_at) / RFU FAM174B (11720279_a_at) / Fold change /veh FAM174B (11720279_a_at) / RFU TMPRSS4 (11748680_a_at) / Fold change /veh TMPRSS4 (11748680_a_at) / RFU FAM212B (11763350_a_at) / Fold change /veh FAM212B (11763350_a_at) / RFU PLEKHG5 (11743358_a_at) / Fold change /veh PLEKHG5 (11743358_a_at) / RFU ZSCAN30 (11745921_a_at) / Fold change /veh ZSCAN30 (11745921_a_at) / RFU CMKLR1 (11741424_a_at) / Fold change /veh CMKLR1 (11741424_a_at) / RFU LOC101060620 /// MAPK8IP1 (11723275_at) / Fold change /veh LOC101060620 /// MAPK8IP1 (11723275_at) / RFU SPTSSB (11747773_x_at) / Fold change /veh SPTSSB (11747773_x_at) / RFU PRSS12 (11739890_at) / Fold change /veh PRSS12 (11739890_at) / RFU BIN1 (11741810_x_at) / Fold change /veh BIN1 (11741810_x_at) / RFU WNT11 (11732464_a_at) / Fold change /veh WNT11 (11732464_a_at) / RFU C10orf10 (11716521_a_at) / Fold change /veh C10orf10 (11716521_a_at) / RFU C5orf56 (11738089_at) / Fold change /veh C5orf56 (11738089_at) / RFU CYB561 (11721691_x_at) / Fold change /veh CYB561 (11721691_x_at) / RFU ANKRD19P (11752326_a_at) / Fold change /veh ANKRD19P (11752326_a_at) / RFU OR2T12 /// OR2T33 /// OR2T8 (11738714_s_at) / Fold change /veh OR2T12 /// OR2T33 /// OR2T8 (11738714_s_at) / RFU VCAN (11748164_a_at) / Fold change /veh VCAN (11748164_a_at) / RFU JSRP1 (11732532_at) / Fold change /veh JSRP1 (11732532_at) / RFU KRTAP10-11 (11738290_x_at) / Fold change /veh KRTAP10-11 (11738290_x_at) / RFU MYO3A (11730013_a_at) / Fold change /veh MYO3A (11730013_a_at) / RFU EBF3 (11725865_a_at) / Fold change /veh EBF3 (11725865_a_at) / RFU CAMK2N1 (11719241_x_at) / Fold change /veh CAMK2N1 (11719241_x_at) / RFU C5orf56 (11738088_a_at) / Fold change /veh C5orf56 (11738088_a_at) / RFU OLFML3 (11715873_a_at) / Fold change /veh OLFML3 (11715873_a_at) / RFU LOC100653217 /// NTM (11731650_a_at) / Fold change /veh LOC100653217 /// NTM (11731650_a_at) / RFU MAPK11 (11762145_a_at) / Fold change /veh MAPK11 (11762145_a_at) / RFU FIZ1 (11724087_x_at) / Fold change /veh FIZ1 (11724087_x_at) / RFU OASL (11726364_x_at) / Fold change /veh OASL (11726364_x_at) / RFU SOX15 (11748057_x_at) / Fold change /veh SOX15 (11748057_x_at) / RFU CD79A (11719716_a_at) / Fold change /veh CD79A (11719716_a_at) / RFU HIST1H1D (11736915_at) / Fold change /veh HIST1H1D (11736915_at) / RFU CASKIN2 (11723855_a_at) / Fold change /veh CASKIN2 (11723855_a_at) / RFU LOC730098 (11760151_x_at) / Fold change /veh LOC730098 (11760151_x_at) / RFU OR4N2 (11742367_at) / Fold change /veh OR4N2 (11742367_at) / RFU PRRT2 (11749266_a_at) / Fold change /veh PRRT2 (11749266_a_at) / RFU SNX32 (11753110_a_at) / Fold change /veh SNX32 (11753110_a_at) / RFU CDHR5 (11726645_a_at) / Fold change /veh CDHR5 (11726645_a_at) / RFU RCAN1 (11760418_a_at) / Fold change /veh RCAN1 (11760418_a_at) / RFU FAM167A (11723789_a_at) / Fold change /veh FAM167A (11723789_a_at) / RFU FAM26E (11764081_at) / Fold change /veh FAM26E (11764081_at) / RFU ISYNA1 (11749810_s_at) / Fold change /veh ISYNA1 (11749810_s_at) / RFU ACY1 (11761880_at) / Fold change /veh ACY1 (11761880_at) / RFU 11764098_at / Fold change /veh 11764098_at / RFU SAMD14 (11745864_x_at) / Fold change /veh SAMD14 (11745864_x_at) / RFU NPB (11741838_a_at) / Fold change /veh NPB (11741838_a_at) / RFU TMPRSS6 (11731388_a_at) / Fold change /veh TMPRSS6 (11731388_a_at) / RFU KRTAP10-2 (11738614_at) / Fold change /veh KRTAP10-2 (11738614_at) / RFU ARHGAP8 /// PRR5-ARHGAP8 (11727945_x_at) / Fold change /veh ARHGAP8 /// PRR5-ARHGAP8 (11727945_x_at) / RFU KRTAP5-7 /// NADSYN1 (11734609_at) / Fold change /veh KRTAP5-7 /// NADSYN1 (11734609_at) / RFU RASL12 (11751679_a_at) / Fold change /veh RASL12 (11751679_a_at) / RFU CDKN2B (11736163_a_at) / Fold change /veh CDKN2B (11736163_a_at) / RFU PRF1 (11729649_at) / Fold change /veh PRF1 (11729649_at) / RFU, ZNF638 /// ZNF638-IT1 / Fold change vs veh, ZNF638 /// ZNF638-IT1 / RFU, PANK3 / Fold change vs veh, PANK3 / RFU, SH3YL1 / Fold change vs veh, SH3YL1 / RFU, ZEB2 / Fold change vs veh, ZEB2 / RFU, NRIP1 / Fold change vs veh, NRIP1 / RFU, PTTG1IP / Fold change vs veh, PTTG1IP / RFU, CAPN2 / Fold change vs veh, CAPN2 / RFU, MED14 / Fold change vs veh, MED14 / RFU, SNORA58 / Fold change vs veh, SNORA58 / RFU, C1orf63 / Fold change vs veh, C1orf63 / RFU, LRRFIP1 / Fold change vs veh, LRRFIP1 / RFU, NDUFAF7 / Fold change vs veh, NDUFAF7 / RFU, SLC12A2 / Fold change vs veh, SLC12A2 / RFU, IBTK / Fold change vs veh, IBTK / RFU, ESF1 / Fold change vs veh, ESF1 / Fold change vs veh, TMEM50B / RFU, TAOK1 / Fold change vs veh, TAOK1 / RFU, ACBD3 / Fold change vs veh, ACBD3 / RFU, TMA16 / Fold change vs veh, TMA16 / RFU, RWDD3 / Fold change vs veh, RWDD3 / RFU, BCAT1 / Fold change vs veh, BCAT1 / RFU, EDEM3 / Fold change vs veh, EDEM3 / RFU, TMEM33 / Fold change vs veh, TMEM33 / RFU, WDR75 / Fold change vs veh, WDR75 / RFU, AHCTF1 / Fold change vs veh, AHCTF1 / RFU, TFRC / Fold change vs veh, TFRC / RFU, ZDHHC17 / Fold change vs veh, ZDHHC17 / RFU, NOM1 / Fold change vs veh, NOM1 / RFU, ARL8B / Fold change vs veh, ARL8B / RFU, ZBTB11 / Fold change vs veh, ZBTB11 / RFU, TAMM41 / Fold change vs veh, TAMM41 / RFU, KIAA1704 /// LOC100996395 / Fold change vs veh, KIAA1704 /// LOC100996395 / RFU, ING1 / Fold change vs veh, ING1 / RFU, TRMT61B / Fold change vs veh, TRMT61B / RFU, FUBP3 / Fold change vs veh, FUBP3 / RFU, TP53 / Fold change vs veh, TP53 / RFU, TNKS2 / Fold change vs veh, TNKS2 / RFU, ZFP14 / Fold change vs veh, ZFP14 / RFU, ACTR2 / Fold change vs veh, ACTR2 / RFU, PPP3R1 / Fold change vs veh, PPP3R1 / RFU, PIK3R1 / Fold change vs veh, PIK3R1 / RFU, HNRNPA1 / Fold change vs veh, HNRNPA1 / RFU, RNF170 / Fold change vs veh, RNF170 / RFU, ZNF28 / Fold change vs veh, ZNF28 / RFU, RNGTT / Fold change vs veh, RNGTT / RFU, OGT / Fold change vs veh, OGT / RFU, BRD1 / Fold change vs veh, BRD1 / RFU, MARS / Fold change vs veh, MARS / RFU, ZNF655 / Fold change vs veh, ZNF655 / RFU, FAHD1 / Fold change vs veh, FAHD1 / RFU, BDP1 / Fold change vs veh, BDP1 / RFU, LRRCC1 / Fold change vs veh, LRRCC1 / RFU, ARID1A / Fold change vs veh, ARID1A / RFU, ZNF146 / Fold change vs veh, ZNF146 / RFU, ZNF330 / Fold change vs veh, ZNF330 / RFU, GPN3 / Fold change vs veh, GPN3 / RFU, C9orf123 / Fold change vs veh, C9orf123 / RFU, N4BP2L2 / Fold change vs veh, N4BP2L2 / RFU, ARFIP1 / Fold change vs veh, ARFIP1 / RFU, FAM179B / Fold change vs veh, FAM179B / RFU, BCL10 / Fold change vs veh, BCL10 / RFU, UHRF1BP1L / Fold change vs veh, UHRF1BP1L / RFU, BET1 / Fold change vs veh, BET1 / RFU, CNOT2 / Fold change vs veh, CNOT2 / RFU, ZNF268 / Fold change vs veh, ZNF268 / Fold change vs veh, ZNF507 / RFU, DGCR2 / Fold change vs veh, DGCR2 / RFU, WDSUB1 / Fold change vs veh, WDSUB1 / Fold change vs veh, HSP90B1 /// MIR3652 / RFU, ADSS / Fold change vs veh, ADSS / RFU, GK / Fold change vs veh, GK / RFU, ZNF148 / Fold change vs veh, ZNF148 / RFU, TAF9 / Fold change vs veh, TAF9 / RFU, SLC1A5 / Fold change vs veh, SLC1A5 / RFU, SLMO2 / Fold change vs veh, SLMO2 / RFU, ABCC4 / Fold change vs veh, ABCC4 / RFU, LOC101060439 /// RAP1B / Fold change vs veh, LOC101060439 /// RAP1B / RFU, RFX7 / Fold change vs veh, RFX7 / RFU, GTPBP10 / Fold change vs veh, GTPBP10 / RFU, CNEP1R1 / Fold change vs veh, CNEP1R1 / RFU, BIVM-ERCC5 /// ERCC5 / Fold change vs veh, BIVM-ERCC5 /// ERCC5 / RFU, ILF3 / Fold change vs veh, ILF3 / RFU 11762660_at / Fold change /veh 11762660_at / RFU VCAN (11757783_s_at) / Fold change /veh VCAN (11757783_s_at) / RFU DDX43 (11728927_at) / Fold change /veh DDX43 (11728927_at) / RFU KRT8 (11758188_x_at) / Fold change /veh KRT8 (11758188_x_at) / RFU NKD1 (11759106_at) / Fold change /veh NKD1 (11759106_at) / RFU SRD5A1 (11742802_a_at) / Fold change /veh SRD5A1 (11742802_a_at) / RFU TPSAB1 /// TPSB2 (11721975_s_at) / Fold change /veh TPSAB1 /// TPSB2 (11721975_s_at) / RFU GSTM3 (11746129_a_at) / Fold change /veh GSTM3 (11746129_a_at) / RFU IL23R (11737362_x_at) / Fold change /veh IL23R (11737362_x_at) / RFU TMEM51 (11727254_a_at) / Fold change /veh TMEM51 (11727254_a_at) / RFU PIWIL2 (11732686_x_at) / Fold change /veh PIWIL2 (11732686_x_at) / RFU ORM1 (11744905_x_at) / Fold change /veh ORM1 (11744905_x_at) / RFU CCDC152 (11743942_at) / Fold change /veh CCDC152 (11743942_at) / RFU ECM1 (11717891_a_at) / Fold change /veh ECM1 (11717891_a_at) / RFU IL23R (11748794_a_at) / Fold change /veh IL23R (11748794_a_at) / RFU TNFAIP8L3 (11732012_x_at) / Fold change /veh TNFAIP8L3 (11732012_x_at) / RFU MBOAT4 (11741988_at) / Fold change /veh MBOAT4 (11741988_at) / RFU 11764193_at / Fold change /veh 11764193_at / RFU TMEM53 (11763286_at) / Fold change /veh TMEM53 (11763286_at) / RFU MAGEB2 (11727129_at) / Fold change /veh MAGEB2 (11727129_at) / RFU TMEM200A (11744735_a_at) / Fold change /veh TMEM200A (11744735_a_at) / RFU CCDC152 (11751479_a_at) / Fold change /veh CCDC152 (11751479_a_at) / RFU FAM211A (11726209_a_at) / Fold change /veh FAM211A (11726209_a_at) / RFU RGS16 (11746705_a_at) / Fold change /veh RGS16 (11746705_a_at) / RFU VCAN (11755009_s_at) / Fold change /veh VCAN (11755009_s_at) / RFU RHOB (11743442_s_at) / Fold change /veh RHOB (11743442_s_at) / RFU RGS16 (11720943_a_at) / Fold change /veh RGS16 (11720943_a_at) / RFU RGS16 (11720944_at) / Fold change /veh RGS16 (11720944_at) / RFU, VPS4B / Fold change vs veh, VPS4B / RFU, CREB1 / Fold change vs veh, CREB1 / RFU, DNAJC13 / Fold change vs veh, DNAJC13 / RFU, GNAQ / Fold change vs veh, GNAQ / RFU, CDK5R1 / Fold change vs veh, CDK5R1 / RFU, ZRANB3 / Fold change vs veh, ZRANB3 / RFU, CUL4A / Fold change vs veh, CUL4A / RFU, CCNY / Fold change vs veh, CCNY / RFU, UFL1 / Fold change vs veh, UFL1 / RFU, COG3 / Fold change vs veh, COG3 / RFU, DIAPH2 / Fold change vs veh, DIAPH2 / RFU, SKA2 / Fold change vs veh, SKA2 / RFU, AFF3 / Fold change vs veh, AFF3 / RFU, LMF1 / Fold change vs veh, LMF1 / RFU, IPO11 / Fold change vs veh, IPO11 / RFU, DFFB / Fold change vs veh, DFFB / RFU, FOXP1 / Fold change vs veh, FOXP1 / RFU, CARD8 / Fold change vs veh, CARD8 / RFU, STRN3 / Fold change vs veh, STRN3 / RFU, ADK / Fold change vs veh, ADK / RFU, RASSF2 / Fold change vs veh, RASSF2 / RFU, WIPF1 / Fold change vs veh, WIPF1 / RFU, LARP1B / Fold change vs veh, LARP1B / RFU, RASA1 / Fold change vs veh, RASA1 / RFU, RB1 / Fold change vs veh, RB1 / RFU, PPFIA1 / Fold change vs veh, PPFIA1 / RFU, MAT2A / Fold change vs veh, MAT2A / RFU, CCT5 / Fold change vs veh, CCT5 / RFU, WDR92 / Fold change vs veh, WDR92 / RFU, CUX1 / Fold change vs veh, CUX1 / RFU, TTC7A / Fold change vs veh, TTC7A / RFU, TMEM135 / Fold change vs veh, TMEM135 / RFU, DEPTOR / Fold change vs veh, DEPTOR / RFU, CPM / Fold change vs veh, CPM / RFU, DNAJB6 / Fold change vs veh, DNAJB6 / RFU, CACNA2D3 / Fold change vs veh, CACNA2D3 / RFU, DTX4 / Fold change vs veh, DTX4 / RFU, TFCP2 / Fold change vs veh, TFCP2 / RFU, GMCL1 /// GMCL1P1 / Fold change vs veh, GMCL1 /// GMCL1P1 / RFU, AEBP2 / Fold change vs veh, AEBP2 / RFU, SNHG1 /// SNORD22 /// SNORD25 /// SNORD26 /// SNORD27 /// SNORD28 /// SNORD29 /// SNORD31 / Fold change vs veh, SNHG1 /// SNORD22 /// SNORD25 /// SNORD26 /// SNORD27 /// SNORD28 /// SNORD29 /// SNORD31 / Fold change (Aza/veh), C12orf56 (ProbeSet 11735607_a_at) / Fold change (ACY-1035/veh), C12orf56 (ProbeSet 11735607_a_at) / Fold change (Aza/veh), FGFR1OP (ProbeSet 11751329_s_at) / Fold change (ACY-1035/veh), FGFR1OP (ProbeSet 11751329_s_at) / Fold change (Aza/veh), VPS36 (ProbeSet 11739960_a_at) / Fold change (ACY-1035/veh), VPS36 (ProbeSet 11739960_a_at) / RFU SYPL1 (11715823_x_at) / Fold change /veh SYPL1 (11715823_x_at) / RFU IGFBP7 (11715501_s_at) / Fold change /veh IGFBP7 (11715501_s_at) / RFU REEP3 (11722064_at) / Fold change /veh REEP3 (11722064_at) / RFU IGLL1 (11728026_x_at) / Fold change /veh IGLL1 (11728026_x_at): dose or concentration left out as unconfirmed
Conditions: ProbeSet 11740011_at; LIST B

Nc1ccc(-c2cccs2)cc1NC(=O)c1ccc2c(c1)cc(C1CC1)n2CCN1CCOCC1 [ACY-1035]
Fold change vs veh, ZFP14: 1.03
